Source: patent US20080214661A1, “Process To Obtain Dibenzylbutyrolactonic, Tetrahydrofuranic Lignans And Their Synthetic And Semi-Synthetic Derivatives, Their Analgesic And Anti-Inflammatory Activities, Topical And/Or Systemic Formulations Containing Said Lignans And Their Respective Therapeutic Method” (FUNDACADO DE AMPARO A PESQUISA DO ESTADO DE SAO PAULO, priority 2005, published 2008)

Tests used:
Assay type in all cases: in vivo
[1] = test system: writhing induced by 0.6% acetic acid solution in mice; experiment: writhing test induced by intraperitoneal injection of acetic acid; conditions: oral administration, doses of 10, 20, 30 and 40 mg/kg; 0.6% acetic acid i.p. in mice; number of writhing in 20 minutes; dose for the value not stated
Description: Each bar represents the average ±SE (n=6) of the number of writhing in 20 minutes for different doses. Data were analyzed by one-way ANOVA and by Dunnett's multiple comparison variation test and the statistical significance was made for the level of p<0.05 (*) and p<0,01 (**)

[2] = test system: rat foot edema induced by carrageenin; experiment: rat foot edema induced by carrageenin; conditions: oral administration; for inhibition as anti-inflammatory agent (rat foot edema): doses of 10, 20, 30 and 40 mg/kg, carrageenin 100 μg/foot, edema volume at third hour, dose for the value not stated
Description: Each bar represents the average ±SE (n=6) of the increase in edema volume (third hour) after the injection of carrageenin. Data were analyzed by one-way ANOVA and by Dunnett's multiple comparison variation test and the statistical significance was made for the level of p<0.05 (*) and p<0.01 (**).

digestive system = experiment: preliminary tests of side effects (gastric, biochemical, hematological)

Molecule	inhibition as analgesic agent (writhing test) [1]	inhibition as anti-inflammatory agent (rat foot edema) [2]	gastric effects (digestive system)	other biochemical and hematological disturbances (digestive system)	efficacy as anti-inflammatory agent ([2]; 10-40 mg/kg, carrageenin-induced rat foot edema)
Nc1cc2c(cc1CC1COC(=O)C1Cc1cc3c(cc1N)OCO3)OCO2 (single isomer, unassigned; (-)) [compound 8, (-)-6,6′-diaminohinokinin]	92%	82%	not evident	non-occurrence	
c1ccc(COC2OC[C@@H](Cc3ccc4c(c3)OCO4)[C@@H]2Cc2ccc3c(c2)OCO3)cc1 (stereo partly drawn) [compound 5, (-)—O-benzyl cubebin]	89%				not efficient as an anti-inflammatory agent
O=C1OC[C@@H](Cc2ccc3c(c2)OCO3)[C@@H]1Cc1ccc2c(c1)OCO2 [compound 6, (-)-hinokinin]	95%	71%	not evident	non-occurrence	
COc1ccc2c(c1)c(CC(=O)O)c(C)n2C(=O)c1ccc(Cl)cc1 [indomethacin, reference compound]			gastric effects as observed		
(-)-6,6′-dinitroinokinin [compound 7]	75%	62%			
